Here are results for six molecules from patent publication US10004701B2, “Methods and compositions for treating infection” (UNIVERSITY OF ROCHESTER, priority 2012, dated 2018).

SMILES strings stand for the structures. Where a name gives a salt, the structure may show the parent alone. Read-outs that look alike come from different tables or passages of the source.

Common to all, as to assay: AK assay 384-well format, Prestwick library screening
Assay [1] has as its system A. baumannii strain 98-37-09. In kind it is cell-based, Acinetobacter baumannii. Particulars: for fold induction at 50 µM: Acinetobacter baumannii, 983709, 3 h.
The test system of another assay is E. faecium. In kind it is cell-based, Enterococcus faecium. Particulars: for fold induction at 50 µM: Enterococcus faecium, 3 h.
A further assay concerns K. pneumoniae. It is filed as cell-based, Klebsiella pneumoniae. Particulars: for fold induction at 50 µM: Klebsiella pneumoniae, 3 h.
In assay [2] the test system is S. aureus strain USA300-0114. In kind it is cell-based, Staphylococcus aureus. Particulars: for fold induction at 50 µM: Staphylococcus aureus, USA300, 3 h.
A further assay has as its system P. aeruginosa. It is filed as cell-based, Pseudomonas aeruginosa. Particulars: for fold induction at 50 µM: Pseudomonas aeruginosa, 3 h.
The subject of a further assay is E. coli. It is filed as cell-based, Escherichia coli. Particulars: for fold induction at 50 µM: Escherichia coli, 3 h.
The test system of the next assay is E. cloacae. It is filed as cell-based, Enterobacter cloacae. Particulars: for fold induction at 50 µM: Enterobacter cloacae, 3 h.
The mark [3] stands for this setting: 50 μM final drug concentration, 384-well format, […].

Consider `C[N+]1(CCCCC[N+]2(C)CCCC2)CCCC1.O=C([O-])C(O)C(O)C(=O)O.O=C([O-])C(O)C(O)C(=O)O` [Pentolinium bitartrate], for which, in assay [1] (setting [3]), the “AK-based Prestwick Library Screening Results, A. baumannii (increase in extracellular AK activity)” value was 1.0. Also, in the assay with E. faecium (setting [3]), the “AK-based Prestwick Library Screening Results, E. faecium (increase in extracellular AK activity)” value turned out to be 0.9. Moreover, the “AK-based Prestwick Library Screening Results, K. pneumoniae (increase in extracellular AK activity)” value with K. pneumoniae (setting [3]) is 0.7. For the same molecule, the “AK-based Prestwick Library Screening Results, S. aureus (increase in extracellular AK activity)” value in assay [2] (setting [3]) is 0.7. Also, in the assay with P. aeruginosa (setting [3]), the “AK-based Prestwick Library Screening Results, P. aeruginosa (increase in extracellular AK activity)” value is recorded as 1.0. The “AK-based Prestwick Library Screening Results, E. coli (increase in extracellular AK activity)” value with E. coli (setting [3]) stood at 0.8. Also, in the assay on E. cloacae (setting [3]), the “AK-based Prestwick Library Screening Results, E. cloacae (increase in extracellular AK activity)” value is on record as 1.1.
With `CNC(=C[N+](=O)[O-])NCCSCc1csc(CN(C)C)n1` [Nizatidine], the fold induction at 50 µM in assay [1] (50 μM final drug concentration, cutoff for positive-scoring molecules 3-fold increase, read-out: AK-based Prestwick Library Screening Results, A. baumannii (fold increase in extracellular AK activity)) was determined as 1; in the assay on E. faecium (50 μM final drug concentration, cutoff for positive-scoring molecules 3-fold increase, read-out: AK-based Prestwick Library Screening Results, E. faecium (fold increase in extracellular AK activity)), 1; in the assay with K. pneumoniae (50 μM final drug concentration, cutoff for positive-scoring molecules 3-fold increase, read-out: AK-based Prestwick Library Screening Results, K. pneumoniae (fold increase in extracellular AK activity)), 0.9; in assay [2] (50 μM final drug concentration, cutoff for positive-scoring molecules 3-fold increase, read-out: AK-based Prestwick Library Screening Results, S. aureus (fold increase in extracellular AK activity)) it was 1.2; in the assay on P. aeruginosa (50 μM final drug concentration, cutoff for positive-scoring molecules 3-fold increase, read-out: AK-based Prestwick Library Screening Results, P. aeruginosa (fold increase in extracellular AK activity)) it was 1.2; in the assay on E. coli (50 μM final drug concentration, cutoff for positive-scoring molecules 3-fold increase, read-out: AK-based Prestwick Library Screening Results, E. coli (fold increase in extracellular AK activity)), 1.3. In addition, in the assay with E. cloacae (50 μM final drug concentration, cutoff for positive-scoring molecules 3-fold increase, read-out: AK-based Prestwick Library Screening Results, E. cloacae (fold increase in extracellular AK activity)), the fold induction at 50 µM was 1.7.
As for `CC(CCc1ccc(O)cc1)NCCc1ccc(O)c(O)c1` (stereo not drawn) [Dobutamine hydrochloride], the fold induction at 50 µM was found to be 0.7 in assay [1] (planktonic A. baumannii, 50 μM final drug concentration, cutoff for positive-scoring molecules 3-fold increase, read-out: AK-based Prestwick Library Screening Results, A. baumannii (increase in extracellular AK activity)); 0.8 in the assay with E. faecium (planktonic E. faecium, 50 μM final drug concentration, cutoff for positive-scoring molecules 3-fold increase, read-out: AK-based Prestwick Library Screening Results, E. faecium (increase in extracellular AK activity)); 0.8 in the assay on K. pneumoniae (planktonic K. pneumoniae, 50 μM final drug concentration, cutoff for positive-scoring molecules 3-fold increase, read-out: AK-based Prestwick Library Screening Results, K. pneumoniae (increase in extracellular AK activity)); 0.1 in assay [2] (planktonic S. aureus, 50 μM final drug concentration, cutoff for positive-scoring molecules 3-fold increase, read-out: AK-based Prestwick Library Screening Results, S. aureus (increase in extracellular AK activity)); 0.6 in the assay on P. aeruginosa (planktonic P. aeruginosa, 50 μM final drug concentration, cutoff for positive-scoring molecules 3-fold increase, read-out: AK-based Prestwick Library Screening Results, P. aeruginosa (increase in extracellular AK activity)); 0.8 with E. coli (planktonic E. coli, 50 μM final drug concentration, cutoff for positive-scoring molecules 3-fold increase, read-out: AK-based Prestwick Library Screening Results, E. coli (increase in extracellular AK activity)). Further, the fold induction at 50 µM in the assay on E. cloacae (planktonic E. cloacae, 50 μM final drug concentration, cutoff for positive-scoring molecules 3-fold increase, read-out: AK-based Prestwick Library Screening Results, E. cloacae (increase in extracellular AK activity)) turned out to be 1.1.
For the molecule `Clc1ccc(COC(Cn2ccnc2)c2ccc(Cl)cc2Cl)c(Cl)c1` (stereo not drawn) [Miconazole], the fold induction at 50 µM was 4.7 in assay [1] (planktonic A. baumannii, 50 μM final drug concentration, 384-well, cutoff for positive-scoring molecules 3-fold increase, read-out: AK-based Prestwick Library Screening Results: A. baumannii (increase in extracellular AK activity)); 2.5 in the assay with E. faecium (planktonic E. faecium, 50 μM final drug concentration, 384-well, cutoff for positive-scoring molecules 3-fold increase, read-out: AK-based Prestwick Library Screening Results: E. faecium (increase in extracellular AK activity)); 1.4 in the assay on K. pneumoniae (planktonic K. pneumoniae, 50 μM final drug concentration, 384-well, cutoff for positive-scoring molecules 3-fold increase, read-out: AK-based Prestwick Library Screening Results: K. pneumoniae (increase in extracellular AK activity)); 2.2 in assay [2] (planktonic S. aureus, 50 μM final drug concentration, 384-well, cutoff for positive-scoring molecules 3-fold increase, read-out: AK-based Prestwick Library Screening Results: S. aureus (increase in extracellular AK activity)); 1.2 with P. aeruginosa (planktonic P. aeruginosa, 50 μM final drug concentration, 384-well, cutoff for positive-scoring molecules 3-fold increase, read-out: AK-based Prestwick Library Screening Results: P. aeruginosa (increase in extracellular AK activity)); 1.4 with E. coli (planktonic E. coli, 50 μM final drug concentration, 384-well, cutoff for positive-scoring molecules 3-fold increase, read-out: AK-based Prestwick Library Screening Results: E. coli (increase in extracellular AK activity)). Further, in the assay on E. cloacae (planktonic E. cloacae, 50 μM final drug concentration, 384-well, cutoff for positive-scoring molecules 3-fold increase, read-out: AK-based Prestwick Library Screening Results: E. cloacae (increase in extracellular AK activity)), the fold induction at 50 µM turned out to be 1.6.
For the molecule `O=C(O)CNC(=O)C(CS)Cc1ccccc1` (stereo not drawn) [Thiorphan], the fold induction at 50 µM in assay [1] (read-out: AK-based Prestwick Library Screening Results, A. baumannii (fold increase in extracellular AK activity)) stood at 1.2; in the assay with E. faecium (read-out: AK-based Prestwick Library Screening Results, E. faecium (fold increase in extracellular AK activity)), 1; in the assay with K. pneumoniae (read-out: AK-based Prestwick Library Screening Results, K. pneumoniae (fold increase in extracellular AK activity)), 1.3; in assay [2] (read-out: AK-based Prestwick Library Screening Results, S. aureus (fold increase in extracellular AK activity)), 1.3; with P. aeruginosa (read-out: AK-based Prestwick Library Screening Results, P. aeruginosa (fold increase in extracellular AK activity)), 1.2; in the assay with E. coli (read-out: AK-based Prestwick Library Screening Results, E. coli (fold increase in extracellular AK activity)), 1.2. Further, the fold induction at 50 µM in the assay with E. cloacae (read-out: AK-based Prestwick Library Screening Results, E. cloacae (fold increase in extracellular AK activity)) came out at 1.5.
For `CC1(C)S[C@@H]2[C@H](NC(=O)Cc3ccccc3)C(=O)N2[C@H]1C(=O)O.CC1(C)S[C@@H]2[C@H](NC(=O)Cc3ccccc3)C(=O)N2[C@H]1C(=O)O.c1ccc(CNCCNCc2ccccc2)cc1` [Benzathine benzylpenicillin], in assay [1] (planktonic A. baumannii, 50 μM final drug concentration, positive cutoff 3-fold increase), the “AK-based Prestwick library screening result, A. baumannii (fold increase in extracellular AK activity)” value is recorded as 5.9. Moreover, the “AK-based Prestwick library screening result, E. faecium (fold increase in extracellular AK activity)” value in the assay on E. faecium (planktonic E. faecium, 50 μM final drug concentration, positive cutoff 3-fold increase) worked out at 1.6. The “AK-based Prestwick library screening result, K. pneumoniae (fold increase in extracellular AK activity)” value with K. pneumoniae (planktonic K. pneumoniae, 50 μM final drug concentration, positive cutoff 3-fold increase) worked out at 1.0. The “AK-based Prestwick library screening result, S. aureus (fold increase in extracellular AK activity)” value in assay [2] (planktonic S. aureus, 50 μM final drug concentration, positive cutoff 3-fold increase) was determined as 1.0. In addition, in the assay with P. aeruginosa (planktonic P. aeruginosa, 50 μM final drug concentration, positive cutoff 3-fold increase), the “AK-based Prestwick library screening result, P. aeruginosa (fold increase in extracellular AK activity)” value came to 1.1. Besides, in the assay with E. coli (planktonic E. coli, 50 μM final drug concentration, positive cutoff 3-fold increase), the “AK-based Prestwick library screening result, E. coli (fold increase in extracellular AK activity)” value turned out to be 15.6. In the assay with E. cloacae (planktonic E. cloacae, 50 μM final drug concentration, positive cutoff 3-fold increase), the “AK-based Prestwick library screening result, E. cloacae (fold increase in extracellular AK activity)” value was 1.6.
